{"source": "patent US11980592B2", "about": "“Cannabinoid-containing complex mixtures for the treatment of neurodegenerative diseases” (GBS GLOBAL BIOPHARMA, INC., priority 2016, dated 2024)", "tested_on": "Cath.a cells", "assay": "TRPV1-induced calcium-mediated cell death (Trypan Blue positivity)", "assay_type": "cell-based", "experimental": "We therefore studied susceptibility of HEK wild type cells, TRPV1 overexpressing HEK cells, and Cath.a cells to TRPV1-induced calcium-mediated cell death.\nCells were plated into tissue culture dishes and treated with either vehicle (HEK wild type and Cath.a) or tetracycline (1 micromolar) for 16 h to induce TRPV1 expression (HEK-TRPV1) at 37° C. in a […] atmosphere. After washing, media were replaced with a modified sodium Ringer solution containing 3% FBS and either 10 millimolar CaCl2 or zero added CaCl2 and 1 millimolar EGTA. […] After 2 minutes, aliquots of 7 microliters of cell suspension were counted in a hemocytometer and field of at least 200 cells were scored for Trypan Blue positive or negative status.", "data": [{"smiles": "COc1cc(CNC(=O)CCCC/C=C/C(C)C)ccc1O", "note": "[capsaicin]", "values": [{"measurement": "cell death (trypan blue positivity) in Cath.a cells", "setting": "10 mM external CaCl2, 80 min after stimulation with 250 nM capsaicin", "result": "can induce cell death"}, {"measurement": "cell death (percent trypan blue positive cells) in Cath.a cells in the absence of external calcium", "setting": "no external calcium, 80 min after stimulation with 250 nM capsaicin", "result": "dependent upon the presence of external calcium"}]}]}
